The record followed here is BindingDB's records for doi:10.1016/j.ejmech.2017.10.076 (Wayne State University, 2018).

A word on the IC50: it is the concentration needed to halve the response being measured.

Molecules are shown by their SMILES.

The target in one assay is T1, Histone deacetylase 8 (Homo sapiens, UniProt Q9BY41).
T1 sequence (Q9BY41 whole entry): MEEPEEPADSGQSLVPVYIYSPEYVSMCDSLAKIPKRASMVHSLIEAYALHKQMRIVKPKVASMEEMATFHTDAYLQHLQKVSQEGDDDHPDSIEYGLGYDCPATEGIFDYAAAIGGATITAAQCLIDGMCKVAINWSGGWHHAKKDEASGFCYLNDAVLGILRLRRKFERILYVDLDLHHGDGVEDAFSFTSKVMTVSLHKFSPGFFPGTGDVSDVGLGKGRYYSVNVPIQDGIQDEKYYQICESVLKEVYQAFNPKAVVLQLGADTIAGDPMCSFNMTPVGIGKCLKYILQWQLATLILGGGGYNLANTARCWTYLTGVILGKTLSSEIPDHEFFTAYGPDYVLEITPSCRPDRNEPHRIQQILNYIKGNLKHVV
In words: Inhibition of human recombinant full-length C-terminal His-tagged HDAC8 expressed in baculovirus infected Sf9 insect cell preincubated for 15 mins followed by HDAC-Glo substrate addition measured after 30 mins by fluorimetric method.

The next assay deals with Histone deacetylase 1 (Homo sapiens, UniProt Q13547). As to the kind of experiment: Inhibition of HDAC1 in human HeLa-S3 cell lysates preincubated for 15 mins followed by HDAC-Glo substrate addition measured after 30 to 40 mins by fluorimetric method.
Another assay has as its target T2, Histone deacetylase 6 (Homo sapiens, UniProt Q9UBN7).
T2 sequence (Q9UBN7 whole entry): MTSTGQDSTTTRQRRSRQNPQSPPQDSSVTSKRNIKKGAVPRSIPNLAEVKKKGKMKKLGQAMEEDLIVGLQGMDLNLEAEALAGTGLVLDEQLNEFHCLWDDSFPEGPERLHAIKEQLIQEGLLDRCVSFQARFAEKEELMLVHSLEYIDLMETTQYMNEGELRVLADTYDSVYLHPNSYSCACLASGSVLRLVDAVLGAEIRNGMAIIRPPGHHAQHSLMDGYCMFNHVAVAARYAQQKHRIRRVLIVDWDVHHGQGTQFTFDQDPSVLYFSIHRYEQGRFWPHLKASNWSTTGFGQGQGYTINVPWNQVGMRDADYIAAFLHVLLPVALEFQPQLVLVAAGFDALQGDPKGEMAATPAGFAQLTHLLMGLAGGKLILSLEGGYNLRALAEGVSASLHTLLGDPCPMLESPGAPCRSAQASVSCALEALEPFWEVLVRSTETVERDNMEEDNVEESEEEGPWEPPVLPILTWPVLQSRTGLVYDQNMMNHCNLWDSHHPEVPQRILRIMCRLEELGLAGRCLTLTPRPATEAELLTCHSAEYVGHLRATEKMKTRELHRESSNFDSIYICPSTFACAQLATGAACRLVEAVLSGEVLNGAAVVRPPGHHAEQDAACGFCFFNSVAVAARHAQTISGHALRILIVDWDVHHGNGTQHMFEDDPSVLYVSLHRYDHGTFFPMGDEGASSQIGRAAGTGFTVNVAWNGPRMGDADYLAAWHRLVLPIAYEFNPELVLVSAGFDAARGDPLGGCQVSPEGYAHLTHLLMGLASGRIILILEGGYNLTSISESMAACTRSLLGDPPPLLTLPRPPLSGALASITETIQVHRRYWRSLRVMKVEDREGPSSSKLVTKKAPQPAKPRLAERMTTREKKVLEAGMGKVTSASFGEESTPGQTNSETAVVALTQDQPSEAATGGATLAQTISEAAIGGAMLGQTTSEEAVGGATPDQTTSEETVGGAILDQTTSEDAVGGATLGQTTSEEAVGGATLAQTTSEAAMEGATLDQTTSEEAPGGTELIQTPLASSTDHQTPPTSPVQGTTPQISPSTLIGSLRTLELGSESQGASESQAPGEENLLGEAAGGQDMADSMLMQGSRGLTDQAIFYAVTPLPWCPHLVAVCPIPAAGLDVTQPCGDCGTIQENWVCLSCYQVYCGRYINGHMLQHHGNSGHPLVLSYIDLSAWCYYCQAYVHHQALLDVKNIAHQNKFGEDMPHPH
In words: Inhibition of HDAC6 in human HeLa-S3 cell lysates preincubated for 15 mins followed by HDAC-Glo substrate addition measured after 30 to 40 mins by fluorimetric method.

The target of another assay is Histone deacetylase 3 (Homo sapiens, UniProt O15379). In words: Inhibition of HDAC3 in human HeLa-S3 cell lysates preincubated for 15 mins followed by HDAC-Glo substrate addition measured after 30 to 40 mins by fluorimetric method.
Sequence of Histone deacetylase 3 (O15379 whole entry): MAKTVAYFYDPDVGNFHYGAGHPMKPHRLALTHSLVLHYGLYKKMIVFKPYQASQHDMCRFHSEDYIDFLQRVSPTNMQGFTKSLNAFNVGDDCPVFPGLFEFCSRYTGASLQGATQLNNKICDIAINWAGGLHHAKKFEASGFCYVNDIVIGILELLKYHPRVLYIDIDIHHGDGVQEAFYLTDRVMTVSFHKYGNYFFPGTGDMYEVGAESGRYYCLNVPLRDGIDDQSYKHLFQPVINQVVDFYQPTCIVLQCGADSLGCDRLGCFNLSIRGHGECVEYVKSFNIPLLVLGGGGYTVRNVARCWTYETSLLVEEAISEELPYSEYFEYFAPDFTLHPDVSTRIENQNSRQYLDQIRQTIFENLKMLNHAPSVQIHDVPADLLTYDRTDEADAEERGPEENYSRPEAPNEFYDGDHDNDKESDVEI

Sequence of Histone deacetylase 1 (Q13547 whole entry): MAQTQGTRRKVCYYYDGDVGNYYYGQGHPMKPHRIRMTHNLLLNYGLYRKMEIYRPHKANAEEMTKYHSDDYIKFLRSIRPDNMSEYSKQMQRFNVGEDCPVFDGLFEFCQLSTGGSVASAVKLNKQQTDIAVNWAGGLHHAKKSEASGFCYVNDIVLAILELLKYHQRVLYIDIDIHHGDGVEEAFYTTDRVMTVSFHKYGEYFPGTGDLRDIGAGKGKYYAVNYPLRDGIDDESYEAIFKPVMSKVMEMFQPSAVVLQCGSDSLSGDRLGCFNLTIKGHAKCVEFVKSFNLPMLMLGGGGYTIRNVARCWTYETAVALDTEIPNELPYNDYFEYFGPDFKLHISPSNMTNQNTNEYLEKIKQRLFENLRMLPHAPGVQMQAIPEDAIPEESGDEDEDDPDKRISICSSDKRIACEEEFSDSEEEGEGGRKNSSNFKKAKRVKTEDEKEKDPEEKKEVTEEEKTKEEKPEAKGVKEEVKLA

Take `O=C(CCC(CCCC(=O)Nc1ccccc1)c1ccccc1)NO` (centres undefined): the IC50 at Histone deacetylase 8 worked out at 290 nM; at Histone deacetylase 1, 11 µM; on Histone deacetylase 6, 110 nM; on Histone deacetylase 3 it was 23 µM.
